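Dose response: 5 concentrations. Exposure: 48 h. Format: 96-well plates. Endpoint: linear interpolation; highest concentration if not reached. TGI: total growth inhibition.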
Key:
Assay in all cases: NCI anticancer screen, dose series, 48 h
SW-620 colon = system: SW-620 colon
IGROV1 ovarian = system: IGROV1 ovarian
HCT-116 colon = system: HCT-116 colon
HT29 colon = system: HT29 colon
UACC-62 melanoma = system: UACC-62 melanoma
SK-MEL-2 melanoma = system: SK-MEL-2 melanoma
OVCAR-8 ovarian = system: OVCAR-8 ovarian
SN12C renal = system: SN12C renal
DU-145 prostate = system: DU-145 prostate
UO-31 renal = system: UO-31 renal
OVCAR-5 ovarian = system: OVCAR-5 ovarian
MDA-MB-435 = system: MDA-MB-435
LOX IMVI melanoma = system: LOX IMVI melanoma

Work on `O=C(Nc1nccs1)NS(=O)(=O)n1cnc2ccccc21` yielded a TGI (SW-620 colon) of over 100 µM, a TGI (IGROV1 ovarian) of over 100 µM and a TGI (HCT-116 colon) of over 100 µM. It also gave a TGI (HT29 colon) of over 100 µM, a TGI (UACC-62 melanoma) of over 100 µM and a TGI (SK-MEL-2 melanoma) of over 100 µM. The TGI (OVCAR-8 ovarian) was over 100 µM, the TGI (SN12C renal) was over 100 µM and the TGI (DU-145 prostate) was over 100 µM. It also gave a TGI (UO-31 renal) of over 100 µM, a TGI (OVCAR-5 ovarian) of over 100 µM and a TGI (MDA-MB-435) of over 100 µM.
`Cc1ccc2c(=O)c(C(=O)NNC(=S)NC3CCCCC3)c[nH]c2n1` was tested, and the TGI (SW-620 colon) was over 100 µM, the TGI (IGROV1 ovarian) was over 100 µM and the TGI (HCT-116 colon) was over 100 µM. For the same compound, the TGI (HT29 colon) was over 100 µM, the TGI (UACC-62 melanoma) was over 100 µM and the TGI (SK-MEL-2 melanoma) was over 100 µM. For the same compound, the TGI (OVCAR-8 ovarian) was over 100 µM, the TGI (SN12C renal) was over 100 µM and the TGI (DU-145 prostate) was over 100 µM. The TGI (LOX IMVI melanoma) was over 100 µM, the TGI (UO-31 renal) was over 100 µM and the TGI (OVCAR-5 ovarian) was over 100 µM. For the same compound, the TGI (MDA-MB-435) was 89 µM.
Compound `C(#C[C@@]12CCC[C@@H]1N(Cc1ccccc1)CO2)c1ccc2c(c1)OCO2` has a TGI (SW-620 colon) of over 100 µM, a TGI (HCT-116 colon) of over 100 µM and a TGI (HT29 colon) of over 100 µM. For the same compound, the TGI (UACC-62 melanoma) was over 100 µM, the TGI (SK-MEL-2 melanoma) was over 100 µM and the TGI (OVCAR-8 ovarian) was over 100 µM. The TGI (SN12C renal) was over 100 µM, the TGI (DU-145 prostate) was over 100 µM and the TGI (UO-31 renal) was over 100 µM. It also gave a TGI (OVCAR-5 ovarian) of over 100 µM and a TGI (MDA-MB-435) of over 100 µM.
For `COc1ccc(NC(=O)CC(=O)N2N=C(C)C(N=Nc3ccc(C(=O)O)cc3)C2=O)cc1` (stereo not drawn), the TGI (SW-620 colon) was over 100 µM, the TGI (IGROV1 ovarian) was over 100 µM and the TGI (HCT-116 colon) was over 100 µM. The TGI (HT29 colon) was over 100 µM, the TGI (UACC-62 melanoma) was over 100 µM and the TGI (SK-MEL-2 melanoma) was over 100 µM. The TGI (OVCAR-8 ovarian) was over 100 µM, the TGI (SN12C renal) was over 100 µM and the TGI (DU-145 prostate) was over 100 µM. It also gave a TGI (LOX IMVI melanoma) of over 100 µM, a TGI (UO-31 renal) of over 100 µM and a TGI (OVCAR-5 ovarian) of over 100 µM. It also gave a TGI (MDA-MB-435) of over 100 µM.
Work on `C=C(C)C1CC2=C(O1)C(=O)c1cccc(O)c1C2=O` (stereo not drawn) yielded a TGI (SW-620 colon) of 2.96 µM, a TGI (IGROV1 ovarian) of 0.617 µM and a TGI (HT29 colon) of 3.13 µM. The TGI (UACC-62 melanoma) was 2.18 µM, the TGI (SK-MEL-2 melanoma) was 2.68 µM and the TGI (OVCAR-8 ovarian) was 1.81 µM. For the same compound, the TGI (SN12C renal) was 2.44 µM, the TGI (DU-145 prostate) was 3.15 µM and the TGI (LOX IMVI melanoma) was over 22.8 µM. The TGI (UO-31 renal) was 2.84 µM, the TGI (OVCAR-5 ovarian) was 3.01 µM and the TGI (MDA-MB-435) was 0.271 µM.
Compound `COc1ccc2c(c1)OC1c3ccccc3OCC21` (stereo not drawn) has a TGI (SW-620 colon) of over 100 µM, a TGI (IGROV1 ovarian) of over 100 µM and a TGI (HCT-116 colon) of over 100 µM. For the same compound, the TGI (HT29 colon) was 93.9 µM, the TGI (UACC-62 melanoma) was over 100 µM and the TGI (SK-MEL-2 melanoma) was over 100 µM. The TGI (OVCAR-8 ovarian) was over 100 µM, the TGI (SN12C renal) was over 100 µM and the TGI (DU-145 prostate) was over 100 µM. The TGI (LOX IMVI melanoma) was over 100 µM, the TGI (UO-31 renal) was over 100 µM and the TGI (OVCAR-5 ovarian) was over 100 µM. For the same compound, the TGI (MDA-MB-435) was over 100 µM.
In the case of `COc1cc(C(=O)N(C(=S)OC23CC4CC(CC(C4)C2)C3)c2ccccc2)cc(OC)c1OC`, the TGI (SW-620 colon) is reported as over 100 µM, the TGI (HCT-116 colon) is reported as 46.4 µM and the TGI (HT29 colon) is reported as 41.8 µM. The TGI (UACC-62 melanoma) was over 100 µM, the TGI (SK-MEL-2 melanoma) was 32.1 µM and the TGI (OVCAR-8 ovarian) was over 100 µM. It also gave a TGI (SN12C renal) of over 100 µM, a TGI (DU-145 prostate) of over 100 µM and a TGI (UO-31 renal) of 79 µM. For the same compound, the TGI (OVCAR-5 ovarian) was over 100 µM and the TGI (MDA-MB-435) was over 100 µM.
For `O=P(O)(O)CC1OC(CO)C(O)C1O` (stereo not drawn), the TGI (SW-620 colon) was over 100 µM, the TGI (IGROV1 ovarian) was over 100 µM and the TGI (HCT-116 colon) was over 100 µM. For the same compound, the TGI (HT29 colon) was over 100 µM, the TGI (UACC-62 melanoma) was over 100 µM and the TGI (SK-MEL-2 melanoma) was over 100 µM. The TGI (OVCAR-8 ovarian) was over 100 µM, the TGI (SN12C renal) was over 100 µM and the TGI (DU-145 prostate) was over 100 µM. It also gave a TGI (LOX IMVI melanoma) of over 100 µM, a TGI (UO-31 renal) of over 100 µM and a TGI (OVCAR-5 ovarian) of over 100 µM. The TGI (MDA-MB-435) was over 100 µM.
